According to PMC9850456, “Click-designed vanilloid-triazole conjugates as dual inhibitors of AChE and Aβ aggregation” (RSC Advances, 2023):

Key:
hAChE = target: T1, hAChE (Homo sapiens, UniProt P22303); assay: biochemical; details: mean ± standard deviation; read-out: IC50 ± SD AChE
T1 construct: purchased BioVision ('Bio Vision, Egypt' [sic]; address 155 S. Milpitas Blvd., Milpitas, CA) K197-100
Experimental: The synthesized compounds were assayed to determine their ability to inhibit hAChE using (K197-100, Bio Vision, Egypt)1. A 96-well plate was used by applying the spectroscopic method of Ellman1, and […]
The compounds were dissolved in a small amount of DMSO to obtain a concentration range of 0.01-10 μM. Each well contained 160 μl of dithiobis-(2-nitrobenzoic acid) (Ellman's reagent, DTNB), 10 μl of the tested compound and 50 μl hAChE solution, while Blank wells contained 160 μl DTNB, 10 μl DMSO, and 50 μl buffer (1 M, pH=8.0, Tris-HCl) . 100% ChE activity (100% activity) contained 160 μl DTNB, 2 μl DMSO, 8 μl buffer and 50 μl hAChE. After 5 min of incubation at 25 […]
Two time points (t1 and t2) in the linear range of the plot were chosen and the corresponding values for the absorbance (OD1 and OD2) were obtained.
The percentage of relative inhibition was calculated from the following equation:
% Relative Inhibition = Slope of[ EC]−Slope of [S] /Slope of[EC ] X100
% Relative Activity = Slope of [S] /Slope of [EC] X100
Where: S, is Sample Screen; EC, is Enzyme Control. […]

Beta-Amyloid (1–42) = target: T2, Beta-Amyloid (1–42) (Homo sapiens, UniProt P05067); assay: biochemical; details: Aβ aggregation, Thioflavin T; mean ± standard deviation; read-out: IC50 ± SD Aβ42 inhibition
T2 construct: SensoLyte® Thioflavin T Beta-Amyloid (1–42) Aggregation Kit; purchased ANASPEC Inc., Fremont, CA, USA
Experimental: The β-amyloid aggregation inhibition was measured using the fluorometric SensoLyte® Thioflavin T Beta-Amyloid (1–42) Aggregation Kit (ANASPEC Inc., Fremont, CA., USA) according to the manufacturer's instructions. […]
2. In Vitro Amyloid-β Aggregation Assay
Amyloid-β (1–42) aggregation was measured using the SensoLyte ® Thioflavin T β-Amyloid aggregation kit (AnaSpec, Fremont, CA, USA) 2, according to the manufacturer’s instructions. The assay is based on the property of the Thioflavin T dye, the fluorescence of which increases when it is bound to aggregates of amyloid-β (1 –42) peptides. Briefly, Thioflavin T was dissolved in assay buffer [10 mM Phosphate/150 mM NaCl (pH=8.0)] and used at a concentration of 100 μM. Samples were dissolved in assay buffer, 5 μL of the sample and 85 μL of amyloid-β (1–42) were mixed, followed by the addition of 10 μL of 2mM Thioflavin T.
Thioflavin T fluorescence was measured at intervals of 10 min for 2 h, with an excitation /emission =440 […]
All fluorescence readings are expressed in relative fluorescence units (RFU).
Morin was used as a positive control. Experiments were performed in triplicate and averaged, and the percentage of inhibition of amyloid-β aggregation was calculated according to the following equation:
% Relative Inhibition = (RFU of PC - RFU of S)/ ([…]) x 100
Where: PC, is the Peptide Positive Control or Solvent Control; S, is Sample Screen.
IC50 was generated by plotting the values of percent inhibition against their corresponding logarithmic concentration. Best fitted line was determined and IC50 was calculated from its equation.

T1 sequence (P22303 32-614): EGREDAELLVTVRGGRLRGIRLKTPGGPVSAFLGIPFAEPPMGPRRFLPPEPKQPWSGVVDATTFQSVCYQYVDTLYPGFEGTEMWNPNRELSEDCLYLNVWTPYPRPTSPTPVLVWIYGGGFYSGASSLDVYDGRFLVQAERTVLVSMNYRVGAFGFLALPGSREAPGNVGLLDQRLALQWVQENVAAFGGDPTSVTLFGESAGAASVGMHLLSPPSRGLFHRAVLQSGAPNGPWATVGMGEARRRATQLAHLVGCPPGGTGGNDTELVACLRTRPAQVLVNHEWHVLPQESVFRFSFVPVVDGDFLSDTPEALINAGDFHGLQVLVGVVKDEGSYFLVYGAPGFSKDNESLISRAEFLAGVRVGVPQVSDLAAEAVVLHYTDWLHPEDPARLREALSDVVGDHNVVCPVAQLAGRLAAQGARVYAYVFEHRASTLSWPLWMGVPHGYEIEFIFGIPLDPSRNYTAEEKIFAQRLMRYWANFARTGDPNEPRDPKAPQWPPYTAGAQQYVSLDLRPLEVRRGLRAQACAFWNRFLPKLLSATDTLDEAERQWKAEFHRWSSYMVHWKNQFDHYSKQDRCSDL
T2 sequence (P05067 672-713): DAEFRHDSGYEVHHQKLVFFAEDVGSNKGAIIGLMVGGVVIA

COc1cc(Cn2cc(COc3ccc(C=O)cc3OC)nn2)ccc1O [Compound 1, 4-((1-(3-methoxy-4-hydroxybenzyl)-1H-1,2,3-triazol-4-yl)methoxy)-3-methoxybenzaldehyde]
IC50 (hAChE): 14200 ± 720 nM | IC50 (Beta-Amyloid (1–42)): 4850 ± 240 nM

C=CCc1ccc(OCc2cn(Cc3ccc(O)c(OC)c3)nn2)c(OC)c1 [Compound 2, 4-((4-((4-allyl-2-methoxyphenoxy)methyl)-1H-1,2,3-triazol-1-yl)methyl)-2-methoxyphenol]
IC50 (hAChE): 26800 ± 1350 nM | IC50 (Beta-Amyloid (1–42)): 22700 ± 1140 nM

COc1cc(Cn2cc(COc3ccc(C=CC=O)cc3OC)nn2)ccc1O [Compound 3, 4-((1-(3-methoxy-4-hydroxybenzyl)-1H-1,2,3-triazol-4-yl)methoxy)-3-methoxyphenyl acrylaldehyde]
IC50 (hAChE): 5530 ± 280 nM | IC50 (Beta-Amyloid (1–42)): 2860 ± 140 nM

CCOC(=O)c1ccc(OCc2cn(Cc3ccc(O)c(OC)c3)nn2)c(OC)c1 [Compound 4, 4-((1-(3-methoxy-4-hydroxybenzyl)-1H-1,2,3-triazol-4-yl)methoxy)-3-methoxy-ethyl benzoate]
IC50 (hAChE): 2110 ± 120 nM | IC50 (Beta-Amyloid (1–42)): 1590 ± 80 nM

COc1cc(Cn2cc(COc3ccc(C(=O)O)cc3OC)nn2)ccc1O [Compound 5, 4-((1-(3-methoxy-4-hydroxybenzyl)-1H-1,2,3-triazol-4-yl)methoxy)-3-methoxybenzoic acid]
IC50 (hAChE): 2110 nM | IC50 (Beta-Amyloid (1–42)): 1480 ± 70 nM

CCOC(=O)C=Cc1ccc(OCc2cn(Cc3ccc(O)c(OC)c3)nn2)c(OC)c1 [Compound 6, ethyl 4-((1-(3-methoxy-4-hydroxybenzyl)-1H-1,2,3-triazol-4-yl)methoxy)-3-methoxyphenyl acrylate]
IC50 (hAChE): 2520 ± 130 nM | IC50 (Beta-Amyloid (1–42)): 3060 ± 150 nM

COc1cc(Cn2cc(COc3ccc(C=CC(=O)O)cc3OC)nn2)ccc1O [Compound 7, 4-((1-(3-methoxy-4-hydroxybenzyl)-1H-1,2,3-triazol-4-yl)methoxy)-3-methoxyphenyl acrylic acid]
IC50 (hAChE): 10600 ± 530 nM | IC50 (Beta-Amyloid (1–42)): 4480 ± 220 nM

COc1cc(Cn2cc(COC(=O)c3ccc(O)c(OC)c3)nn2)ccc1O [Compound 8, (1-(4-hydroxy-3-methoxybenzyl)-1H-1,2,3-triazol-4-yl)methyl 4-hydroxy-3-methoxy benzoate]
IC50 (hAChE): 1200 ± 60 nM | IC50 (Beta-Amyloid (1–42)): 950 ± 50 nM

COc1cc(/C=C/C(=O)OCc2cn(Cc3ccc(O)c(OC)c3)nn2)ccc1O [Compound 9, (E)-(1-(4-hydroxy-3-methoxybenzyl)-1H-1,2,3-triazol-4-yl)methyl 3-(4-hydroxy-3 methoxyphenyl)acrylate]
IC50 (hAChE): 470 ± 20 nM | IC50 (Beta-Amyloid (1–42)): 310 ± 20 nM
